Measurements as given in patent US9241964B2, “Composition from Sphaeranthus indicus and Garcinia mangostana for the control of metabolic syndrome” (LAILA NUTRACEUTICALS, priority 2009, dated 2016).

What was measured:
[1] = molecular target: α-glucosidase; test: α-Glucosidase inhibition (p-nitrophenyl α-D-glucopyranose); format: biochemical; conditions: pH 7, room temperature
Experimental: α-Glucosidase inhibitory activity was measured using the in vitro method developed by D. Prasanth et al., (Fitoterapia 2001, 72, 686-688). In a micro plate well was taken 50 μL of α-glucosidase enzyme (0.4 U/mL), and treated with 90 μL of 100 mM phosphate buffer (pH 7) and 10 μL test substances (α-mangostin, γ-mangostin and AR 933) or vehicle control. The contents were mixed well and the reaction mixtures were incubated at room temperature for 5 min, and then added 50 μL of p-nitrophenyl α-D-glucopyranose (20 mM) as substrate. The contents were mixed well and again incubated at room temperature for 15 min. The reaction was stopped by the addition of 30 μL of sodium carbonate solution (135 mM). The absorbance was measured at 405 nm using micro plate reader. Control and test blank ODs were obtained by replacing enzyme with buffer. Percentage inhibitions were calculated by comparing mean test OD with mean control OD. {% inhibition=[(COD−TOD)/COD]×100}. The IC50 values were calculated by linear regression analysis of the dose response curve.

[2] = tested on: 3T3-L1 pre-adipocyte cells; test: Pro-lipolytic activity in differentiated adipocytes (free glycerol release); format: cell-based, mouse; conditions: 3T3-L1 (Table IV)
Experimental: Similarly, the pro-lipolytic activity of the ethyl actate extract (LI/DD-II/054A/01) of Sphaeranthus indicus was assessed in differentiated/mature adipocytes using 3T3-L1 pre-adipocyte cells. The lipolytic activity was assessed in mature adipocytes by measuring free glycerol secreted into the culture medium as per the procedure of Adipolysis Assay Kit (Chemicon International, USA).
The lipolytic activity was assessed in mature adipocytes as per the procedure of Chemicon International, USA, by measuring free glycerol secreted into the culture medium. One hundred thousand 3T3-L1 […] pre-adipocyte cells in Dulbecco's Modified Eagles Medium (DMEM) containing 10% Fetal Bovine Serum (FBS) were taken into each well of a 24-well plate and incubated for 48 h at 37° C. and 5% CO2. The differentiation of pre-adipocyte cells was initiated in a differentiation medium containing 10 μg/ml insulin, 1.0 μM dexamethasone, and 0.5 mM isobutylmethylxanthine (IBMX). The cells were differentiated for 5 days and then the culture medium was removed. […] The samples and the controls were incubated for 15 min, and the absorbance was read at 540 nm. […]

[3] = molecular target: α-amylase; test: α-Amylase inhibition (DNS method); format: biochemical; conditions: 1% soluble starch as substrate
Experimental: α-Amylase inhibitory activity was measured using the dinitrosalicylic acid (DNS) method developed by Bernfeld (Methods in Enzymology, 1955, Vol. 1, pp 149-158), improved by Jamieson et al (Journal of Dental Research 1969; 48(3): 483) and adopted for testing inhibitory potential of test substances by M. C. M da Silva et al (2004, Pesq. Agropec. bras., Brasilia, 2004; 39(3); pp 201-208) using 1% soluble starch as substrate.
The test substances (α-mangostin, γ-mangostin and AR 933) were pre-incubated with α-amylase 100 μL (10-25 U/mL) at room temperature for 20 minutes prior to the addition of 100 μL of the substrate solution followed by incubation at 37° C. for 10 minutes. The reactions were stopped by the addition of 200 μL of DNS reagent, followed by color development by placing the tubes in boiling water for 5 minutes. After addition of 3.6 mL distilled water, the absorbance was read at 470 nm. Known α-amylase inhibitor was used as positive control and vehicle was used as negative control. Assays were carried out at least in duplicate. Percentage inhibition will be calculated by comparing mean test OD with mean control OD. {% inhibition=[(COD−TOD)/COD]×100}. The IC50 values were calculated by linear regression analysis of the dose response curve.

[4] = tested on: 3T3-L1 mouse pre-adipocyte cells; test: Inhibition of lipid accumulation in differentiated adipocytes (Oil Red O); format: cell-based; conditions: 10 μg/ml; 3T3-L1 (Table III)
Experimental: The inhibition of fat accumulation in the treated cells was compared with the mock treated differentiated adipocytes and percentage inhibition was measured.
One hundred thousand 3T3-L1 […] pre-adipocyte cells in Dulbecco's Modified Eagles Medium (DMEM) containing 10% Fetal Bovine Serum (FBS) were taken into each well of a 24-well plate and incubated for 48 h at 37° C. and 5% CO2. The differentiation of pre-adipocyte cells was initiated in a differentiation medium containing 10 μg/ml insulin, 1.0 μM dexamethasone, and 0.5 mM isobutylmethylxanthine (IBMX) for 48 h. After this the medium was replaced by DMEM containing 10 μg/ml insulin and incubated for 3 days. Then the differentiating cells were treated 10 μg/ml of Sphaeranthus indicus ethyl acetate extract (LI/DD-II/054A/01) and 0.5 μg/ml of 7-hydroxyfrullanolide (LI054A01) and maintained in the medium for another 3-5 days. The cells incubated with 0.1% DMSO were considered as the vehicle control. After the incubation period, cells were washed with phosphate buffered saline (PBS) and fixed with 10% buffered formalin for 1 h at room temperature. One small aliquot of cell suspension was separated for cell counting in hemocytometer chamber. Fixed cells were stained with Oil Red O solution to measure the cellular neutral lipid accumulation. Briefly, cells were washed with PBS, fixed with 10% buffered formalin and stained with Oil Red O solution (0.5 g in 100 ml isopropanol) for 10 min. After removing the staining solution, the dye retained in the cells will be eluted into isopropanol and OD measured at 550 nm. The inhibition of fat accumulation in the treated cells was compared with the mock treated differentiated adipocytes. The treated and control cells were also analyzed and compared for inhibition of lipid accumulation visually under microscope and recorded digitally in suitable image capture system. The anti-adipogenic activities shown by Sphaeranthus Indicus ethyl acetate extract (LI/DD-II/054A/01) and LIO054A01 are summarized in the following table.

SMILES | IC50 (μg/ml) for α-glucosidase [1] [µg/mL] | % acceleration of lipolysis 25 μg/ml [2] [%] | IC50 (μg/ml) for α-amylase [3] [µg/mL] | % inhibition of Lipid accumulation 10 μg/ml [4] [%]
CC(C)=CCc1c(O)cc2oc3cc(O)c(O)c(CC=C(C)C)c3c(=O)c2c1O [γ-mangostin] | 0.16 | 4.52 | 3.88 | 61.57
COc1c(O)cc2oc3cc(O)c(CC=C(C)C)c(O)c3c(=O)c2c1CC=C(C)C [α-mangostin] | 0.30 | 156.56 | 3.99 | 16.06
